Where no end group is shown, it is not given here.
Legend:
anti-β2GPI mAb ILA-3 = assay: ELISA binding of ILA-3 mAb to phage-displayed hexapeptides; design: species or system human; scale not given here; details: ILA-3 mAb 5 μg/ml, 10^9 phage particles/well, O.D. at 405 nm
Experimental: (§1) (a) Epitope Library. The hexapeptide epitope library was kindly provided by George P. Smith (University of Missouri, Columbia, MO) and was constructed by use of the phage fd-derived vector fUSE5 as described (Scott and Smith, 1990). This library consists of 2×10^8 original phage clones each containing a hexapeptide fused to the minor coat protein PIII (Scott and Smith, 1990). (b) Anti-β2GPI mAbs. The human anti-β2GPI mAbs named ILA-1, ILA-3 and G-3 (IgM), were prepared by human-human hybridoma technique from PBL of an APS patient as described (George et al., 1998). Briefly, peripheral blood cells (PBL) were separated from whole blood by Ficoll-Hypaque gradient, the PBL were exposed to pokeweed mitogen for 5 days in order to enrich the B cell population and the lymphocytes were fused with the human lymphoblastoid cell line GM4672 in the presence of polyethyleneglycol (PEG 1500). After fusion, the cells were seeded into 96-well tissue culture plates with RPMI 1640, 10% FCS and hypoxanthine-aminopterin-thymidine (HAT) selection media. New clones were detected after 4–5 weeks, grown and screened for binding to β2GPI by ELISA. All clones were subjected 4 times to limiting dilution cloning procedures in regular medium. […] The hexapeptide epitope library of section (a) above was used as described (Scott and Smith, 1990). […]

anti-β2GPI mAb ILA-1 = assay: ELISA binding of ILA-1 mAb to phage-displayed hexapeptides; design: species or system human; details: ILA-1 mAb 5 μg/ml, 10^9 phage particles/well, O.D. at 405 nm
Experimental: as §1

anti-β2GPI mAb G-3 = assay: ELISA binding of G-3 mAb to phage-displayed hexapeptides; design: species or system human; scale not given here; details: G-3 mAb 5 μg/ml, 10^9 phage particles/well, O.D. at 405 nm
Experimental: (a) Epitope Library. The hexapeptide epitope library was kindly provided by George P. Smith (University of Missouri, Columbia, MO) and was constructed by use of the phage fd-derived vector fUSE5 as described (Scott and Smith, 1990). This library consists of 2×10^8 original phage clones each containing a hexapeptide fused to the minor coat protein PIII (Scott and Smith, 1990). (b) Anti-β2GPI mAbs. The human anti-β2GPI mAbs named ILA-1, ILA-3 and G-3 (IgM), were prepared by human-human hybridoma technique from PBL of an APS patient as described (George et al., 1998). Briefly, peripheral blood cells (PBL) were separated from whole blood by Ficoll-Hypaque gradient, the PBL were exposed to pokeweed mitogen for 5 days in order to enrich the B cell population and the lymphocytes were fused with the human lymphoblastoid cell line GM4672 in the presence of polyethyleneglycol (PEG 1500). After fusion, the cells were seeded into 96-well tissue culture plates with RPMI 1640, 10% FCS and hypoxanthine-aminopterin-thymidine (HAT) selection media. New clones were detected after 4–5 weeks, grown and screened for binding to β2GPI by ELISA. All clones were subjected 4 times to limiting dilution cloning procedures in regular medium. […] The hexapeptide epitope library of section (a) above was used as described (Scott and Smith, 1990). Briefly, a library sample containing 3.8×10^9 infectious phage particles was subjected to three rounds of selection (panning) and amplification. For each selection cycle a biotinylated mAb prepared as described in section (b) above (10 μg in the first panning and 1 μg for the others) was added in a total volume of 50 μl. The phages were preincubated with the biotinylated mAb overnight at 4° C., and the reaction mixtures were then layered in 1 ml PBS on streptavidin-coated 30-mm polystyrene petri dishes (Nunc, Kamstrup, Roskilde, Denmark) for 30 min at room temperature. Unbound phages were removed by extensive washings in PBS, and the remaining phages were eluted with 0.1M glycine-HCl, pH 2.2, and neutralized with Tris 1M. […]

Substance | Binding O.D. (anti-β2GPI mAb ILA-1) [O.D.] | Binding O.D. (anti-β2GPI mAb G-3) [O.D.] | further results
KDKATF [K D K A T F] | – | – | Binding O.D. (anti-β2GPI mAb ILA-3): 1178 ± 101 O.D.
KTPRVT [K T P R V T] | 1201 ± 142 | – | –
LKTPRV [L K T P R V] | 975 ± 72 | – | –
TKLRVY [T K L R V Y] | – | 954 ± 62 | –
TLLRVY [T L L R V Y] | – | 869 ± 71 | –
TLRVYK [T L R V Y K] | – | 791 ± 33 | –

— patent US7053178B2, “Synthetic peptides and kits for diagnosis of anti-phospholipid syndrome” (Yeda Research Development Co., LTD, priority 1998, dated 2006)
